Like-named read-outs stand apart in the source and are kept apart here.

The subject of one data set is AR. The conditions noted are these: cellular models of prostate cancer, micromolar concentrations; cited from earlier work.
A short description of data set [1]: Pharmacokinetics of MJC13 (Formulation PT4) after IV bolus in rats, three-compartment model. Type of data set: in vivo, Sprague-Dawley rats. The note with it: single IV bolus 2 mg/kg, Formulation PT4, n = 8; for half-life / Vd: iv, 2 mg/kg. How it is done: To further determine the fate of MJC13 in live animals and verify the applicability of the developed LC/MS/MS assay and formulations, pharmacokinetic studies were performed in rats. The animal experiment and protocol were reviewed and approved by the Institutional Animal Care and Use Committee at Texas Southern University. The jugular veins of eight male adult Sprague-Dawley rats (358˜377 g) were cannulated under anesthesia using a cocktail of ketamine:acetopromazine:xylazine (50:3.3:3.3 mg/kg) the day before the study. On the day of study, Formulation PT4, which includes PEG 400 and Tween 80 (1:1, v/v) with a MJC13 concentration of 7.5 mg/mL, was diluted to 1 mg/mL by normal saline. Blood and urine samples were collected from each rat right before dosing. Each rat was given a 2 mg/kg intravenous (IV) bolus dose of MJC13. Blood sample collecting tubes were heparinized and dried. In order to avoid any possible contamination, after dosing for each rat, the foremost part of each tubing associated with the needle for dosing was cut off, and then 0.5 mL of normal saline containing 20 U/mL heparin was injected to flush the tubing. Blood samples (250 μL; n=8) were collected at 5, 10, 15, 30 minutes, 1, 2, 4, 6, 8, 12, 24, 48 and 72 hours post injection, respectively. The blood samples were centrifuged at 13,000 rpm for 10 minutes and the supernatants (plasma) were obtained and immediately stored at −80° C. until analysis. Urine samples (n=4) were collected periodically, including 0-2, 2-4, 4-8, 8-12, 12-24, 24-48 and 48-72 hours post injection. After measurement of the overall urinary volume of each interval, urine samples were immediately stored at −80° C. until analysis. Within 48 hours, those plasma and urine samples were analyzed by the LC/MS/MS method of Example 1 to obtain MJC13 concentrations. After analysis, the plasma concentrations and cumulative urinary excretions of MJC13 were presented as the mean value with standard deviation (SD) and plotted against time by SigmaPlot 12.3 (Systat Software, San Jose, Calif.). (FIGS. 5, 6, 7A, and 7B).
The intravenous drug plasma concentration-time data were pharmacokinetically analyzed separately for each rat by compartmental modeling using the microcomputer-based nonlinear regression program, WINNONLIN software 5.2.1 (Pharsight Corporation, Mountain View, Calif.). A three-compartment model was provided which best described the fit for the IV bolus administration based on the appearance of the observed and predicted concentrations, the reduction in the sums of squares, and the Akaike's information criterion (Yamaoka et al., J. Pharmacokinet Biopharm., 6(2): 165-75 (1978)). The three-compartment model is described by Eq. 5:
Ct=A·e^−αt+B·e^−βt+C·e^−γt, Eq. 5
where A, B and C are the coefficients, α is the α-phase hybrid rate constant, β is β-phase hybrid rate constant, γ is the γ-phase hybrid rate constant, and Ct is the plasma concentration of MJC13 at time t. The pharmacokinetic parameters thus derived were the systemic or plasma clearance (Cl), the volume of distribution (Vd), the total area under the plasma drug concentration-time curve (AUC), and half-lives (T1/2).

The nature of data set [2]: Rat plasma protein binding by ultrafiltration. The note with it: 37° C. Type of data set: in vitro ADME. How it is done:
In vitro rat plasma samples of MJC13 were prepared by diluting the stock solution with acetonitrile and spiking in rat plasma at five different concentrations: 100, 500, 1000, 2000 and 5000 ng/mL to approximate the plasma concentrations of MJC13 in rats after 2 mg/kg intravenous bolus dosing. The plasma was incubated at 37° C. for 1 hours before being transferred to Amicon Ultra-0.5 mL Centrifugal Filters (EMD Millipore Corporation, Billerica, Mass.) for ultrafiltration at 3000 rpm for 10 minutes. Filtrate and nonfiltrate concentrations were determined by LC-MS/MS. The fraction unbound, fu, was determined as Eq. 4:
where Cu is the unbound concentration and Ct is the total concentration.

A word on the clearance: it is the rate of elimination divided by the concentration. In the case of `O=C(Nc1cccc(Cl)c1Cl)C1CCCCC1` [MJC13], the “block of AR-dependent gene expression” value in the data set with AR is reported as “effectively block AR-dependent gene expression”. Besides, the clearance in data set [1] (male, Sprague-Dawley, plasma, rat, read-out: Cl (total body clearance)) worked out at 6.04 ± 2.43 mL/min/kg. For the same molecule, in data set [1] (male, Sprague-Dawley, rat, plasma, rat plasma, read-out: T1/2α (elimination half-life of α-phase)), the half-life amounted to 0.094 ± 0.0217 h. Moreover, the half-life in data set [1] (male, Sprague-Dawley, rat, plasma, rat plasma, read-out: T1/2β (elimination half-life of β-phase)) is 2.1 ± 0.317 h. In addition, in data set [1] (male, Sprague-Dawley, rat, plasma, rat plasma, read-out: T1/2γ (elimination half-life of γ-phase)), the half-life was 32.3 ± 12.1 h. For the same molecule, in data set [1] (male, Sprague-Dawley, rat, plasma, rat, read-out: V1 (volume of distribution of central compartment)), the Vd was 0.744 ± 0.074 L/kg. Further, in data set [1] (male, Sprague-Dawley, rat, plasma, rat, read-out: Vss (volume of distribution at steady state)), the Vd was 10.8 ± 2.13 L/kg. Also, the AUC(0-inf) in data set [1] (male, Sprague-Dawley, rat plasma, read-out: AUC0-∞ (area under curve from time zero to infinity) (converted)) is 6640 ng·h/mL. The Cmax in data set [1] (male, Sprague-Dawley, rat plasma, read-out: Cmax (maximum concentration)) came out at 2710 ± 251 ng/mL. Moreover, in data set [1] (rat plasma), the “A (coefficient of α-phase)” value was determined as 2124 ± 222 ng/mL, the “B (coefficient of β-phase)” value was >483 ± 126 ng/mL and the “C (coefficient of γ-phase)” value is recorded as 101 ± 36 ng/mL. In data set [1] (rat), the “V2 (volume of distribution of first peripheral compartment)” value was 2.038 ± 0.646 L/kg and the “V3 (volume of distribution of second peripheral compartment)” value turned out to be 8.068 ± 1.6 L/kg. The molecule further returned a fraction bound at 1 h, 100 ng/mL in data set [2] (100 ng/mL) of 0.981 ± 0.015. For the same molecule, the fraction bound at 1 h, 500 ng/mL in data set [2] (500 ng/mL) came to 0.976 ± 0.027. In data set [2] (1000 ng/mL), the fraction bound at 1 h, 1000 ng/mL was found to be 0.996 ± 0.017. In data set [2] (2000 ng/mL), this molecule displayed a fraction bound at 1 h, 2000 ng/mL of 0.972 ± 0.028. Moreover, in data set [2] (5000 ng/mL), the fraction bound at 1 h, 5000 ng/mL stood at 0.979 ± 0.024.

Source of the values: patent US20160030369A1, “FKBP52 TARGETING AGENT PHARMACEUTICAL COMPOSITIONS” (THE UNITED STATES OF AMERICA AS REPRESENTED BY THE …, priority 2013, published 2016).
